The test system of series [1] is E. coli bacteria expressing f18-FimH. As to the kind of experiment: Parallel plate flow chamber, E. coli on surfaces coated with purified components. It counts as binding. The settings on record: for Effect of shear on accumulation of E. coli on coated surface (in words): 0.12 to 20 dynes/cm^2. On the procedure:
Parallel plate flow chamber experiments. Dishes coated with purified components were prepared by incubating 35 mm tissue culture dishes with […] of either 200 mg/ml man-BSA, 200 mg/ml gal-BSA, or a 50,000-fold dilution of polyclonal anti-FimH antiserum in 0.02M bicarbonate buffer for 75 minutes at 37 C, and then washing three times with phosphate-buffered […] with 0.1% BSA (PBS-BSA). The dishes were then inserted into a 2.5 cm×0.25 cm×[…] parallel plate flow chamber (GlycoTech). Bacteria expressing f18-FimH were prepared as described previously (W. E. Thomas, E. Trintchina, M. Forero, V. Vogel, E. V. Sokurenko, Cell 109:913-23 (Jun. 28, 2002)), and brought to 108 cfu/ml in PBS-BSA. 2% alpha-monomannose was added to the PBS-BSA in the studies of surfaces coated with anti-FimH antibodies in order to inhibit any potential mannose-specific interaction between the bacteria and the carbohydrate modifications on the antibodies. This solution of bacteria was flowed through the chamber using a Harvard syringe pump at various shear rates. The bound bacteria were recorded using a Nikon inverted microscope with a 10× phase-contrast objective, a Roper Scientific high-resolution CCD camera, and MetaMorph video acquisition software. The field of view was […] with a resolution of […] per pixel. Even when 400 bacteria bound per field of view, they covered only 1% of the surface area, so that any interactions between bacteria were minimal.
Videos of bound bacteria were analyzed using MetaMorph imaging software. Total bound bacteria in an image appeared as dark spots in phase-contrast and were counted using the automated cell counting package in MetaMorph. The moving bacteria in an image were identified by subtracting an image from another taken one second earlier so that the bacteria that moved after the first image appear as dark spots that can be counted (FIG. 1, FIG. 3A, FIG. 4). This number was compared to the total number originally counted in the first image to give the fraction of bacteria that moved (FIGS. 1B 3C 3D. The movement may represent detachment or rolling. In FIG. 3B where even detached bacteria were visible due to the short shutter speed and low flow rate, bacteria were classified as detached when they moved faster than the hydrodynamic velocity (the shear rate times the bacterial radius of […]), as stationary if they moved less than one pixel (the size of the larger fluctuations in bacterial position over time that occurred with no net movement), and as rolling for anything in between.
Bacterial adhesion and accumulation is the first step in colonizing, and in many cases infecting target tissues. In order to determine the mechanism which allows bacteria to adhere to target tissues under shear, we studied the kinetics by which E. coli bacteria attach and detach from 1Man-coated surfaces, and how the attachment and detachment behavior depends on shear. Recombinant type I fimbriated E. coli bacteria were used that expressed a variant of the adhesion FimH. […] This FimH variant is found in commensal E. coli strains, including the strain F-18 used in our study. Mannosylated bovine serum albumin (1Man-BSA) was adsorbed to glass to prepare chemically controlled model surfaces that expose only 1Man in contrast to using red blood cells that present additional ligands and receptors that might interacting with E. coli. […] A suspension of E. coli cells was passed through a flow chamber coated with 1Man and the binding of bacteria to the surface under various shear conditions was determined. Using a long (2 second) camera shutter time to blur out the free floating cells, we measured the accumulation of stationary bacteria bound to the surface after a period of five minutes at a range of physiologically relevant shear stresses, from 0.12 to 20 dynes/cm^2 (FIG. 6, triangles). […] This is consistent with previous reports of poor binding of this strain to 1Man in the absence of shear.

The target in another series is f-18 fimbriae (FimH) (Escherichia coli, UniProt P08191, N91S/S99N/V48A). Conditions: 6 μm PS beads.
In series [2] the test system is guinea pig red blood cells (RBCs). Put plainly: Parallel plate flow chamber, RBCs on carpet of FimH-expressing E. coli. It counts as cell-based. The settings on record: for Adhesion of RBCs to bacterial carpet under low shear: 0.01 to 0.14 dynes/cm^2. On the procedure:
Bacteria-coated dishes were prepared as follows: 35 mm tissue culture dishes were incubated with 20 μg/ml RNAse B in 0.02 M bicarbonate buffer for 1 hr at 37° C. and washed three times in PBS with 0.1% BSA (PBS-BSA). The dishes were then incubated with 200 μl PBS-BSA containing 108 colony-forming units of E. coli for 1 hr at 37° C. and washed three times. […] The dishes were then placed under a Glycotech parallel plate flow chamber with a size B gasket (2.5 cm×0.25 cm×250 μm) and sealed with vacuum. A Harvard model #975 pulse-free syringe pump was used to pump fluid through the chamber. The dishes were equilibrated in the flow chamber with PBS-BSA, and a 0.1% solution of RBC was injected into the chamber, allowed to settle onto the bacterial carpet, and washed with PBS-BSA at a shear stress of about 0.5 dynes/cm^2 until all free cells had been removed from the chamber and upstream tubing. The volumetric flow was then reduced to bring the shear stress down to 0.01-0.02 dynes/cm^2, and the shear stress was stepped up 2-fold, with at least 3 min at each shear stress.
RBC movement was recorded using phase contrast microscopy with a 20× objective, a CCD camera, and Metamorph video imaging software by Universal Imaging. Videos were recorded at 1 frame every 2 s for a total of 3 min at each shear rate. The position of each RBC was tracked at 6 s intervals in these videos using Metamorph's point tracking plug-in. The average velocity for each cell was calculated from these positions over the 3 min at each shear. These were then averaged for the average velocity of all cells. Some cells detached completely at the low shear stress and moved at the fluid velocity. (A cell moving in flow near a surface has velocity approximately equal to the cell radius, 5 μm, times the shear rate, assuming it is almost touching the surface.) Since these times reflected movement without any bond detachment, these time intervals were removed from the analysis for each cell. We only analyzed cells that were attached and in the field of view at the start of the 3 min time frame. The off-rate of RBCs was calculated from the X, the percent of original RBCs remaining bound at time t, using the formula k=1/t·ln(1/X), and using t=3 min. This assumes that detachment is independent and governed by a single rate constant, and X=e−kt, so that the number of remaining RBCs decays exponentially.
To establish whether the differential pattern of RBC agglutination observed in example 1 was due to a distinct ability of shear to enhance adhesion of type I fimbriated bacteria to RBCs, we studied the adhesion of low- and high-Man1 binding variants to RBCs under well-defined shear conditions. Previous studies on the effect of shear on selectin or von Willebrand factor-mediated adhesion of lymphocytes and platelets have used flow chambers (Finger et al., 1996; Marchese et al., 1999). Using a similar approach, we immobilized bacteria expressing either FimH-f18 or FimH-j96 on the surface of a flow chamber coated with bovine 3Man-RNaseB, a model trimannose-containing substrate to which both FimH variants bind with equal affinity (see Table 1A). In brief, RBCs were allowed to bind to the bacterial carpet, and the unbound cells were removed by rinsing under moderate fluid flow shear (0.28 to 0.90 dynes/cm^2). RBCs that remained attached to the bacterial carpet were then subjected to various shear conditions.

For series [3] the test system is unchanged. Put plainly: RBC rosette-formation assay (static agglutination). It counts as cell-based. Conditions: for RBC agglutination under static conditions (in words): static rosette-formation assay. How it is done:
(§1) Assays of bacterial adhesion to Man1-BSA and bovine RNAseB immobilized in 96-well plates were carried out as described previously (Sokurenko et al., 1995). Briefly, Man1-BSA and bovine RNAseB were dissolved at 20 μg/ml in 0.02 M bicarbonate buffer, and 100 μl aliquots were incubated in microtiter wells for 1 hr at 37° C. The wells were then washed three times with PBS and quenched with 0.1% BSA in PBS. 3H-thymidine-labeled bacteria were added in 0.1% BSA in PBS and incubated for 40 min at 37° C. without shaking to achieve saturation, and the wells were then washed with PBS. The individual wells were subjected to scintillation counting. The density of bacteria used in all assays was 5×10^7 colony forming units per 100 μl. RBC rosette-formation assay was performed by mixing equal amounts of serially diluted bacterial suspensions (starting from OD540 nm=1.0) and a 1% suspension of RBC in U-bottom microtiter plate wells. On-slide agglutination assays were performed by mixing the suspension of RBC and bacteria on a slide surface followed by rocking at ˜3 s^−1.
(§2) Two commonly used RBC agglutination assays were performed that utilize different shear conditions. […] If no agglutination occurs, RBCs fall into a pellet in the bottom of the well (FIG. 15A), while agglutination results in a rosette of RBCs crosslinked by bacteria. […] After three minutes without rocking, the aggregate loosened (FIG. 15C).

Series [4] has the same test system. Put plainly: On-slide RBC agglutination with rocking (dynamic). It counts as cell-based. How it is done:
as §1, §2

The mark [5] stands for this setting: switch from 5 to 0.12 dynes/cm^2.

Chain of f-18 fimbriae (FimH) (P08191 22-300 V48A/N91S/S99N): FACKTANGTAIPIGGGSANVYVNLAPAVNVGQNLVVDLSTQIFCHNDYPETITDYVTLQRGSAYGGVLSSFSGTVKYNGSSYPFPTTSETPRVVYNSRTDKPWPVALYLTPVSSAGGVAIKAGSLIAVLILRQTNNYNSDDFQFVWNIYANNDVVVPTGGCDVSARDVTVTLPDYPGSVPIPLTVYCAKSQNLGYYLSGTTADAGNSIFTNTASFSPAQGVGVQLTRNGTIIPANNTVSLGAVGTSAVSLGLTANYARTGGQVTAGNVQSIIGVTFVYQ
Chain of f-18 fimbriae (FimH) (P08190 24-167 partner): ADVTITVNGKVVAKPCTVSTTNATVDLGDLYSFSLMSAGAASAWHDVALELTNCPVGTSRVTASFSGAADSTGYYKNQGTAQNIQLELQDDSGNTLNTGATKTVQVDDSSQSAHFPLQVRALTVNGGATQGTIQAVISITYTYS
Chain of f-18 fimbriae (FimH) (P08189 21-176 partner): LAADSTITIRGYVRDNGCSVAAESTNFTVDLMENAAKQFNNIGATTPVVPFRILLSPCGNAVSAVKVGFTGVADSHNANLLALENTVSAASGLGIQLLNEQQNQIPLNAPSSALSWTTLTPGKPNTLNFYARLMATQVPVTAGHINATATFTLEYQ
Chain of f-18 fimbriae (FimH) (P04128 24-182 partner): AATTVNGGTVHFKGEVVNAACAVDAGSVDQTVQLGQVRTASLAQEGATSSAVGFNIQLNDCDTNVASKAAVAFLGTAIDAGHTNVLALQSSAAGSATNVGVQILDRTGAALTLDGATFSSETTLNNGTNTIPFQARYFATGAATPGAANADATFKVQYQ
Protocol for f-18 fimbriae (FimH): Physisorption of fimbriae to PS plates: 35 mm Coming (#430165) tissue culture dishes were incubated with purified fimbriae diluted 500 fold in 0.02M bicarbonate buffer at 37° C. for 1 hour, and then washed thrice in PBS with 0.1% BSA (PBS-BSA) to prevent nonspecific adhesion by the beads or RBCs to the dish.
Bead coating by 1Man-BSA: Polystyrene microspheres were prepared by rotating a solution of 50 μl of 2.6% beads mixed with 150 μl of 20-200 μg/ml receptor in 0.02M Bicarbonate buffer for one hour at room temperature. Then they were spun twice and resuspended in fresh PBS-BSA. They were finally diluted down to 0.1% and injected in the chamber.
Parallel plate flow chamber experiments: The coated dishes served as the bottom plate in parallel plate flow chamber from Glycotech #31-0001 (Rockville, Md.) using a silicon rubber gasket 20 mm long, 2.5 mm wide and 0.010 in thick. […] The movement of the beads and RBCs was recorded using an inverted Nikon TE 2000 microscope with a long working distance 10× phase contrast objective by means of a Roper Scientific (Duluth, Ga.) Cascade CCD camera.
Data Analysis: Images of the flow chamber were recorded every 3 seconds for 3 minutes at each shear rate. […] The expected free flowing velocity was calculated by multiplying the shear rate by the radius of the particle, assuming that it is barely touching the surface. […]

In the case of “1Man-BSA: monomannose (1Man) conjugated to Bovine Serum Albumin”, the “Effect of shear on accumulation of E. coli on coated surface (in words)” value in series [1] is “shear enhances the adhesion”. The “Number of initial attachments in the field of view” value in series [1] (0.5 dynes/cm^2) came to 102 attachments per minute; in series [1] (3.6 dynes/cm^2), 64 attachments per minute; in series [1] (7 dynes/cm^2), 32 attachments per minute. For the same compound, the “Increase of E. coli accumulation on coated surface” value in series [1] (5 dynes/cm^2) is recorded as 100 -fold. Besides, the “Rolling velocity of surface-bound bacteria” value in series [1] (at the peak of the accumulation curve) is “about 30 mm per second”. In series [1] (peaking at around 3-5 dynes/cm^2, five minutes), the “Accumulation of E. coli on coated surface, fold higher binding” value is recorded as “over 100 -fold”. In addition, the “First-order rate constant for the switch from rolling to detached” value in series [1] (setting [5]) worked out at 3 s⁻¹. Further, the “First-order rate constant for the switch from stationary to rolling” value in series [1] (setting [5]) came out at 0.09 s⁻¹. In addition, the “Binding of coated beads to carpet of fimbriae (in words)” value with f-18 fimbriae (FimH) was “shear-activated binding”. In the series with f-18 fimbriae (FimH), the “Shear stress at which bead velocity starts to drop” value was found to be 0.03 pN/μm^2.

For `COC1O[C@H](CO)[C@@H](O)[C@H](O)[C@@H]1O` (stereo partly drawn) [α-methyl-mannoside, reference compound], the “Inhibition of original attachment of RBCs to bacteria” value in series [2] (50 mM) is “could be inhibited”. For the same compound, the “Inhibition of RBC agglutination by α-methyl-mannoside” value in series [3] (50 mM, in all assays (static and dynamic)) is reported as “inhibitable”.

As for “FimH-f18: low-Man1 binding natural FimH variant from intestinal E. coli strain F18, expressed on type I fimbriated recombinant bacteria”, the “Off-rate of RBCs from bacterial carpet” value is 0.002 min⁻¹ in series [2] (0.14 dynes/cm^2); 0.1 min⁻¹ in series [2] (0.2 to 0.4 dynes/cm^2, on average); 0.03 min⁻¹ in series [2] (0.7 dynes/cm^2); “too low to measure” in series [2] (shear stresses above 0.2 dynes/cm^2). Further, the “Adhesion of RBCs to bacterial carpet under low shear” value in series [2] is “bind weakly”. Also, in series [2] (moderate shear, 0.28 to 0.90 dynes/cm^2), the “Adhesion of RBCs to bacterial carpet under moderate shear” value is given as “firmly adhered”. Further, the “RBC agglutination under static conditions (in words)” value (“RBC agglutination … (in words)” below) in series [3] is recorded as “unable to mediate RBC agglutination”. The “Time after rocking was stopped within which aggregates began to dissipate” value in series [4] (after rocking was stopped) is ≤ 3 min. In addition, the “RBC aggregate formation in rocking assay with diluted bacteria” value in series [4] (bacteria 10-fold diluted) is “still formed aggregates”.

As for “FimH-j96: natural FimH variant of uropathogenic E. coli strain J96; differs from FimH-f18 by A27V, S70N, N78S”, the “Adhesion of RBCs to bacterial carpet under low shear” value in series [2] was “adhered firmly”. The “Dilution of bacteria up to which RBC rosettes formed” value in series [3] (static conditions) is listed as ≤ 8 -fold dilution. In series [3], the “RBC agglutination … (in words)” value is on record as “able to agglutinate RBC in static conditions”. For the same compound, in series [4] (after rocking was halted), the “Stability of RBC aggregates after rocking was halted” value is listed as “remained stable indefinitely long”. Moreover, in series [4] (highest concentration of bacteria (10^9 bacteria/ml)), the “Time for RBCs to form tight clumps in dynamic rocking assay” value is 35 ± 2 s.

As to “Q32L: single Q32L mutation, effect stated in the FimH-j96 background”, the “RBC agglutination … (in words)” value in series [3] is “eliminated the ability of the bacteria to agglutinate RBCs under static conditions”.

For the compound “S124A: single S124A mutation, effect stated in the FimH-j96 background”, in series [3], the “RBC agglutination … (in words)” value is recorded as “eliminated the ability of the bacteria to agglutinate RBCs under static conditions”.

As to “galactosylated BSA: negative control galactosylated BSA; galactose is not specifically recognized by FimH”, the “Effect of shear on accumulation of E. coli on coated surface (in words)” value in series [1] was “essentially no bacteria bound at any shear”.

Source of the values: patent publication US20090325259A1, “USE OF ADHESION MOLECULES AS BOND STRESS-ENHANCED NANOSCALE BINDING SWITCHES” (priority 2002, published 2009).
